Laboratory results as given in ChEMBL document CHEMBL4002587 (Eur J Med Chem, 2017).

Key:
Rattus norvegicus = species on record: Rattus norvegicus; experiment: Anti-thrombotic activity in Sprague-Dawley rat assessed as inhibition of arteriovenous thrombosis weight at 0.5 mg/ml relative to control; type: functional
[1] = Oral bioavailability in human at 10 to 400 mg administered as single dose measured after 24 hrs; type: ADME, organism-based; conditions: in vivo
Prothrombin = Prothrombin (Homo sapiens, UniProt P00734); experiment: Inhibition of human thrombin preincubated for 10 mins followed by Ac-FVR-AMC substrate addition measured every 20s for 10 mins by fluorescence assay

bioavailability [1] [%] | IC50 (Prothrombin) [nM] | Compound | inhibition (INH) (Rattus norvegicus) [%]
6.5 |  | Cn1c(CNc2ccc(C(=N)N)cc2)nc2cc(C(=O)N(CCC(=O)O)c3ccccn3)ccc21 [DABIGATRAN] | 85.07
 | 3.7 | Cc1cc(C)cc(N(CCC(=O)O)C(=O)c2ccc3c(c2)nc(CNc2ccc(C(=N)N)cc2F)n3C)c1 | 
 | 3.33 | Cc1ccnc(N(CCC(=O)O)C(=O)c2ccc3c(c2)nc(CNc2ccc(C(=N)N)cc2F)n3C)c1 | 
 | 14.6 | Cn1c(CNc2ccc(C(=N)N)cc2F)nc2cc(C(=O)N(CCC(=O)O)c3ccc(F)c(F)c3)ccc21 | 
 | 12.8 | Cc1cccc(C)c1N(CCC(=O)O)C(=O)c1ccc2c(c1)nc(CNc1ccc(C(=N)N)cc1F)n2C | 
 | 2.26 | Cc1cccc(N(CCC(=O)O)C(=O)c2ccc3c(c2)nc(CNc2ccc(C(=N)N)cc2F)n3C)c1 | 
 | 1.54 | Cc1cccc(N(CCC(=O)O)C(=O)c2ccc3c(c2)nc(CNc2ccc(C(=N)N)cc2F)n3C)c1C | 84.24
 | 3.2 | Cc1cc(N(CCC(=O)O)C(=O)c2ccc3c(c2)nc(CNc2ccc(C(=N)N)cc2F)n3C)ccc1F | 
 | 0.84 | Cn1c(CNc2ccc(C(=N)N)cc2F)nc2cc(C(=O)N(CCC(=O)O)c3ccc(F)cc3F)ccc21 | 
 | 3.35 | Cc1ccc(C)c(N(CCC(=O)O)C(=O)c2ccc3c(c2)nc(CNc2ccc(C(=N)N)cc2F)n3C)c1 | 
 | 1.18 | Cn1c(CNc2ccc(C(=N)N)cc2F)nc2cc(C(=O)N(CCC(=O)O)c3cc(F)cc(F)c3)ccc21 | 
 | 1.42 | Cc1cccc(N(CCC(=O)O)C(=O)c2ccc3c(c2)nc(CNc2ccc(C(=N)N)cc2F)n3C)n1 | 84.57
